Assay results as given in patent publication US4522815A, “Anthracycline glycosides” (priority 1982, dated 1985).
Converted amounts (≈) assume the structure as drawn.

Assays:
[1] = system: Gross leukemia; conditions: already demonstrated; cited from earlier work
[2] = system: HeLa cells; experiment: Colony inhibition test against HeLa cells in vitro (cloning efficiency), treatment for 24 hrs; type: cell-based; conditions: Homo sapiens, HeLa, 24 h, Table 3, 24 hrs
[3] = system: ascitic P388 leukemia; experiment: Antitumor activity against ascitic P388 leukemia in CDF-1 mice, treatment i.p. on day 1; type: in vivo; conditions: Table 5; 0.75 mg/kg i.p. day 1
Method: The primary screening […] was carried out in CDF-1 mice bearing ascitic P388 leukemia (10^6 cells/mouse). Both IIa and IIc were suspended in 10%. Tween 80 and injected intraperitoneally.
Results of the primary screening "in vivo" carried out in CDF-1 mice bearing P388 ascitic leukemia and treated i.p. the day after tumor transplantation, are reported in Table 5.
Antitumor activity against ascitic P388 leukekemia.
(§1) Treatment i.p. on day 1.
^a median survival time; % over untreated controls
^b long term survivors (≥ 60 days)
^c evaluated on the basis of autoptic findings on dead mice
(§2) ^d data of two experiments (range)
^e date of three experiments (range)
Antitumor activity of Ib and Id against ascitic P388
as §1

[4] = system: Gross leukemia; experiment: Oral activity against i.v. transplanted Gross leukemia (i.v. comparators); type: in vivo, C3H/Me mice; conditions: Table 7, oral +1
Excerpt: Results of studies performed in C3H/Me mice carrying i.v. transplanted Gross leukemia and treated i.v. the day after tumor transplantation, are reported in Table 6. […] The compounds Ib and Id were further investigated for oral activity on Gross leukemic transplanted i.v., in comparison with DNR, DX given i.v. and 4-dm DNR given oral route.
Oral activity of Ib and Id against Gross leukemia
^a days after transplantation
as §2

For CC(=O)[C@]1(O)Cc2c(O)c3c(c(O)c2[C@@H](O[C@H]2C[C@H](N)[C@H](O)[C@H](C)O2)C1)C(=O)c1ccccc1C3=O [4-dm DNR, 4-demethoxy DNR, reference compound], the “activity by oral route” value [1] is listed as “active by oral route”, the activity at 0.0031 µg/mL ([2]; 3.1 ng/ml, read-out: No of colonies, % of untreated controls) is listed as 84% and the activity at 0.0062 µg/mL ([2]; 6.2 ng/ml, read-out: No of colonies, % of untreated controls) is listed as 53%. It also gave an activity at 0.0125 µg/mL ([2]; 12.5 ng/ml, read-out: No of colonies, % of untreated controls) of 18%, an activity at 0.025 µg/mL ([2]; 25 ng/ml, read-out: No of colonies, % of untreated controls) of 0% and an IC50 ([2]; HeLa colony inhibition, read-out: ID50 (the source's name)) of roughly 6.3 ng/mL (≈ 0.0127 µM). For the same molecule, the “LTS, long term survivors (≥ 60 days)” value [3] was 0/8, the “T/C, median survival time; % over untreated controls” value [3] was 163% and the “Toxic deaths (autoptic findings on dead mice)” value [3] was 0/8. The “T/C %, median survival time” value ([4]; 3 mg/kg) was 150%, the Toxic deaths ([4]; 3 mg/kg) was 0/6 and the “T/C %, median survival time” value ([4]; 3.6 mg/kg) was 150%. The Toxic deaths ([4]; 3.6 mg/kg) was 0/6, the “T/C %, median survival time” value ([4]; 4.3 mg/kg) was 216% and the Toxic deaths ([4]; 4.3 mg/kg) was 0/3.
